Converted amounts (≈) assume the structure as drawn.
Key:
E. coli SPase I [1] = target: T1, E. coli SPase I (Escherichia coli, UniProt P00803, I81L); test: Fluorimetric IC50 determination, E. coli signal peptidase; type: biochemical
T1 construct: His-tag (inferred from vector pET15b cloned at NdeI/XhoI and Ni-NTA purification); made in house; host or cells: E. coli BL21(DE3)
Procedure: Cloning and expression of the E. coli SPase I gene is performed by polymerase chain reaction (PCR) using E. coli genomic DNA as a template and two oligonucleotides as primers: 5′-[…]-3′ (SEQ ID NO: 1) and 5′-[…]-3′ (SEQ ID NO:2). The primers are designed to contain NdeI and XhoI restriction sites at the 5′-ends, respectively, to enable cloning into the bacterial expression vector pET15b (Novagen). The primers are synthesized based upon the published sequence of E. coli SPase I (Wolfe, et al. (1983) J. Biol. Chem. 258, 12073-12080).
Expression vector pET15b-E. coli SPase is constructed by replacing the NdeI/XhoI fragment of pET15b with the PCR fragment that is purified and digested with Ndel and XhoI. The identity of the cloned gene is confirmed by DNA sequencing. For expression of E. coli SPase I, E. coli strain BL21(DE3)(Stratagene) is transformed with pET15b-E. coli SPase, and grown and induced with 0.4 mM IPTG (isopropryl-1-thio-β-D-galactopyranoside) as described in Studier, et al. (1990) Methods Enzymol. 185, 60-89.
For purification of E. coli SPase T, one liter of IPTG-induced E. coli BL21(DE3) cells harboring pET15b-E coli SPase is harvested by centrifugation and re-suspended in 50 ml of lysis buffer containing 50 mM Na2HPO4, 300 mM NaCl, pH 8.0, and sonicated 5 min. on ice. The lysate is then centrifuged at 50,000 g for 1 hr at 4° C. The resultant supernatant is discarded, the pellet is re-suspended, and sonicated for 5 min. in 20 ml of lysis buffer containing 8 M urea. After centrifugation at 50,000 g for 1 hr at 4° C., the supernatant is loaded onto a 5 ml column of pre-equilibrated Ni-nitrilotriacetic acid (NTA) that is then washed with 120 ml of refolding buffer (50 mM NaH2PO4, 300 mM NaCl, 15 mM imidazole) containing a continuous urea gradient from 6 to 1 M with a flow rate of 1 ml/min. The protein is eluted with 20 ml of elution buffer (20 mM Tris-HCl, pH 8.0, 20% glycerol, 1 M urea and 100 mM imidazole), and 1 ml fractions are collected and utilized for enzyme assay.
(§1) “IC50” refers to the concentration of inhibitor required to achieve a half-maximal degree of inhibition of SPase I. The IC50 is determined by a fluorimetric assay as described in Peng, et al. (2001) J. Bacterol. 183, 621-627, with a fluorogenic peptide used as substrate as described therein. The reaction is performed in 50 μls of reaction mixture containing 50 nM of either E. coli or S. pneumoniae SPase I, 50 μM substrate, and a series dilution of inhibitor. Inhibitors are dissolved in dimethylsulfoxide (DMSO). Compounds in DMSO are diluted in reaction buffer. The final DMSO concentration in the reaction mixtures is 2% (v/v). Reaction mixtures are incubated at 37° C. for 1-2 hrs. The IC50 is calculated using a nonlinear regression method with GraphPad Prism™ Software (GraphPad G3-A13127-507). The inhibitory activity of lipoglycopeptides 1-8 against both E. coli and S. pneumoniae signal peptidases, are summarized in Table 7.
Target sequence in this assay (P00803 77-324 I81L): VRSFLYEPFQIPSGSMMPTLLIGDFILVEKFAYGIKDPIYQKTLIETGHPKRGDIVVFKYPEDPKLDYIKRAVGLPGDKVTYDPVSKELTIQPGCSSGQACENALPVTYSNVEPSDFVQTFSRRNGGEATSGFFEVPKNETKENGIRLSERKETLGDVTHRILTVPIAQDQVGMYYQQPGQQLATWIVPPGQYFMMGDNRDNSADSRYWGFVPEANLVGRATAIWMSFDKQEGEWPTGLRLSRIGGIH

S. pneumoniae SPase I = target: T2, S. pneumoniae SPase I (Streptococcus pneumoniae serotype 4, UniProt O07344); test: Fluorimetric IC50 determination, S. pneumoniae signal peptidase; type: biochemical; settings: 50 nM SPase I, 50 μM fluorogenic substrate, 37° C., 1-2 hrs
T2 construct: made in house
T2 sequence (O07344 whole entry): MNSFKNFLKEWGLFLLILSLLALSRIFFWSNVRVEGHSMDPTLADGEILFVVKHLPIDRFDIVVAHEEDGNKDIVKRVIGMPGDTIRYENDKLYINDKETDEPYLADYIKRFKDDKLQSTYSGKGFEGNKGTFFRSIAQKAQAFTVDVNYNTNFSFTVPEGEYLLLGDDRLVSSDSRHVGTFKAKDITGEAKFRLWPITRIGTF
Procedure: Procedures for cloning, expression and purification of S. pneumoniae Spase can be found in reference (Peng, et al. (2001) J. Bacterol. 183, 621-627).
as §1

E. coli EL744 = test: Broth micro-dilution MIC, E. coli EL744; type: cell-based; settings: Escherichia coli, MHII broth, 23-24 hr at 37° C.
Procedure: (§2) The in vitro antibacterial activity of lipoglycopeptides 1, 2, 5, 6, 7, and 8 is determined according to the National Committee for Clinical Laboratory Standards (NCCLS) recommendations for broth micro-dilution assay using 2xsTH (Todd Hewitt broth), MHII (cation adjusted Mueller Hinton broth) or HTM medium (Haemophilus Test Medium) (Gerhardt, P., et al., (1994) Methods for General and Molecular Bacteriology. American Society for Microbiology, Washington, D.C.). Bacterial strains used for antibacterial assay include both gram-positive and gram-negative bacteria: S. pneumoniae R6, Staphylococcus aureus SA027, Haemophilus influenzae ATCC 49247, E. coli EL683 and EL744. A two-fold serial dilution of the test compound is prepared in 100% DMSO. The assay is performed in the wells of a sterile 96-well microplate, that is inoculated with bacterial cell suspension in growth medium or broth as above. The final volume is 100 μl cell suspension, containing 2.5% DMSO. The starting concentration of bacterial cells is 5×10^5 CFU/ml. The 96-well microplate is incubated for 23-24 hr at 37° C. in an ambient air incubator. Upon completion of incubation, the MIC (minimal inhibitory concentration) is determined by visual examination of the microplate with the aid of a magnifying mirror apparatus. The MIC is the lowest concentration of compound tested that results in no visible sign of bacterial growth.

[2] = system: Haemophilus influenzae ATCC 49247; test: Broth micro-dilution MIC, H. influenzae ATCC 49247; type: cell-based; settings: ATCC49247, read-out: MIC, H. influenzae ATCC49247
Procedure: as §2

S. pneumoniae R6 = test: Broth micro-dilution MIC, S. pneumoniae R6; type: cell-based; settings: 23-24 hr at 37° C.; for MIC: Streptococcus pneumoniae, R6, 2XsTH broth; for MIC, S. pneumoniae R6: 2XsTH broth
Procedure: as §2

E. coli SPase I [3] = target: T1, E. coli SPase I; test: Kinetic analysis by HPLC assay with non-fluorogenic peptide substrate; type: biochemical
Procedure: A kinetic analysis is performed with E. coli SPase I and the non-fluorogenic peptide substrate by HPLC assay as described in Peng, et al. (2001) J. Bacterol. 183, 621-627. 50 μl of reaction volume contains 50 nM E. coli SPase I with different concentrations of substrate and lipoglycopepetide inhibitors. The reaction mixtures are incubated at room temperature for 30 mins., and terminated by the addition of an equal amount of 8 M urea. The final concentration of DMSO in the reaction mixtures is 2%. Substrate cleavage is analyzed by HPLC as described in Peng, et al. (2001) J. Bacterol. 183, 621-627. The initial rate, K1, and inhibition type of the inhibitor is calculated with Sigma Plot 2000, Version 6.2 with enzyme kinetics module (SPSS, Inc., Cat No. 3703564).

[4] = system: Staphylococcus aureus SA027; test: Broth micro-dilution MIC, S. aureus SA027; type: cell-based; settings: MHII broth, 23-24 hr at 37° C.
Procedure: as §2

E. coli EL683 = test: Broth micro-dilution MIC, E. coli EL683; type: cell-based; settings: Escherichia coli, MHII broth, 23-24 hr at 37° C.
Procedure: as §2

[5] = system: Staphylococcus aureus (ATCC 33592); test: Beta-lactamase release assay; type: cell-based; settings: beta-lactamase-producing S. aureus ATCC 33592, 2 hr incubation with inhibitor
Procedure: In Staphylococcus aureus, signal peptidase cleaves beta-lactamase, resulting in the release of beta-lactaidase into the medium. In this example, the ability of lipoglycopeptides 1,2, and 5 to inhibit the release of beta-lactamase from Staphylococcus aureus into the medium is examined.
Staphylococcus aureus (ATCC 33592) cells are grown overnight in a series dilution in Brain Heart Infusion (BHI) (Gerhardt, P., et al., (1994) Methods for General and Molecular Bacteriology. American Society for Microbiology, Washington, D.C.) medium in a 37° C. incubator containing 5% CO2. Cultures with an OD660 less than 0.3 are centrifuged, and the cells are washed once with fresh BHI medium. The cells are then resuspended in fresh BHI medium to an initial OD660 of 0.15-0.2. At the same time, the selected inhibitor is diluted from the DMSO stock solution into BHI medium at different concentrations, and is added to the cells which are then incubated at 37° C. under 5% CO2 for 2 hr. The final DMSO concentration in the reaction mixtures is 1% (v/v). The OD660 is measured at the end of incubation. The cells are centrifuged, and the supernatant is saved for the determination of secreted beta-lactamase. The pellet is washed once with fresh BHI medium, re-suspended in the equivalent volume of fresh BHI medium, frozen, and then thawed […]. for three cycles, and used for the determination of retained beta-lactamase. For the determination of beta-lactamase activity, 100 μl reaction mixture (30-50 μls of supernatant or lysed cells) is incubated with 250 μM nitrocefin in 1×PBS buffer (phosphate buffered saline) (pH 6.8) at 37° C. for 30-60 min. Nitrocefin is the substrate for beta-lactamase. Cleavage of nitrocefin results in an increase in absorbance at 482 nm. The absorbance at 482 nm (OD482) is measured at the beginning and at the end of the reaction. The secreted and the retained beta-lactamase activities are calculated based upon the ΔOD482.

| SMILES | IC50 (E. coli SPase I [1]) | IC50 (S. pneumoniae SPase I) | MIC (E. coli EL744) | MIC [2] | MIC (S. pneumoniae R6) | Ki (E. coli SPase I [3]) | MIC [4] | MIC, S. pneumoniae R6 (S. pneumoniae R6) | MIC (E. coli EL683) | inhibition of secretion of beta-lactamase [5] |
| --- | --- | --- | --- | --- | --- | --- | --- | --- | --- | --- |
| CCCCCCCCCCCCCCC(=O)N(C)C(CO)C(=O)NC(C)C(=O)NCC(=O)N(C)C1C(=O)NC(C)C(=O)NC(C(=O)O)Cc2ccc(O)c(c2)-c2cc1ccc2OC1OC(C)C(O)C(O)C1O (stereo not shown) [Compound 4] | 130 nM | 5900 nM |  |  |  |  |  |  |  |  |
| CC(C)CCCCCCCCCCC(=O)N(C)C(CO)C(=O)NC(C)C(=O)NCC(=O)N(C)C1C(=O)NC(C)C(=O)NC(C(=O)O)Cc2ccc(O)c(c2)-c2cc1cc(O)c2OC1OC(C)C(O)C(O)C1O (stereo not shown) [Compound 8] | 110 nM | 24900 nM | 8 µg/mL (≈ 7.88 µM) | > 64 µg/mL | > 64 µg/mL | 110 nM | > 64 µg/mL |  |  |  |
| CC(C)CCCCCCCCCCCCC(=O)N(C)C(CO)C(=O)NC(C)C(=O)NCC(=O)N(C)C1C(=O)NC(C)C(=O)NC(C(=O)O)Cc2ccc(O)c(c2)-c2cc1ccc2OC1OC(C)C(O)C(O)C1O (stereo not shown) [Compound 5] | 130 nM | 2400 nM | 16 µg/mL (≈ 15.6 µM) | > 64 µg/mL | 16 µg/mL (≈ 15.6 µM) | 57.5 nM | > 64 µg/mL | 8 µg/mL (≈ 7.79 µM) | 4 µg/mL (≈ 3.89 µM) | inhibit the secretion of beta-lactamase |
| CC(C)CCCCCCCCCCC(=O)N(C)C(CO)C(=O)NC(C)C(=O)NCC(=O)N(C)C1C(=O)NC(C)C(=O)NC(C(=O)O)Cc2ccc(O)c(c2)-c2cc1ccc2OC1OC(C)C(O)C(O)C1O (stereo not shown) [Compound 7] | 110 nM | 6100 nM | 16 µg/mL (≈ 16 µM) | > 64 µg/mL | > 64 µg/mL | 50.4 nM | > 64 µg/mL |  |  |  |
| CCCCCCCCCCCCCC(=O)N(C)C(CO)C(=O)NC(C)C(=O)NCC(=O)N(C)C1C(=O)NC(C)C(=O)NC(C(=O)O)Cc2ccc(O)c(c2)-c2cc1ccc2OC1OC(C)C(O)C(O)C1O (stereo not shown) [Compound 6] | 110 nM | 6600 nM | 8 µg/mL (≈ 8.01 µM) | > 64 µg/mL | 64 µg/mL (≈ 64.1 µM) |  | > 64 µg/mL |  |  |  |
| CC(C)CCCCCCCCCCCC(=O)N(C)C(CO)C(=O)NC(C)C(=O)NCC(=O)N(C)C1C(=O)NC(C)C(=O)NC(C(=O)O)Cc2ccc(O)c(c2)-c2cc1ccc2OC1OC(C)C(O)C(O)C1O (stereo not shown) [Compound 3] | 130 nM | 7000 nM |  |  |  |  |  |  |  |  |
| CC(C)CCCCCCCCCCCCC(=O)N(C)C(CO)C(=O)NC(C)C(=O)NCC(=O)N(C)C1C(=O)NC(C)C(=O)NC(C(=O)O)Cc2ccc(O)c(c2)-c2cc1cc(O)c2OC1OC(C)C(O)C(O)C1O (stereo not shown) [Compound 1] | 170 nM | 7100 nM | 32 µg/mL (≈ 30.7 µM) | 64 µg/mL (≈ 61.3 µM) | 16 µg/mL (≈ 15.3 µM) |  | 32 µg/mL (≈ 30.7 µM) |  | 8 µg/mL (≈ 7.67 µM) | inhibit the secretion of beta-lactamase |
| CCCCCCCCCCCCCCCC(=O)N(C)C(CO)C(=O)NC(C)C(=O)NCC(=O)N(C)C1C(=O)NC(C)C(=O)NC(C(=O)O)Cc2ccc(O)c(c2)-c2cc1cc(O)c2OC1OC(C)C(O)C(O)C1O (stereo not shown) [Compound 2] | 190 nM | 10300 nM | 32 µg/mL (≈ 30.7 µM) | 64 µg/mL (≈ 61.3 µM) | 8 µg/mL (≈ 7.67 µM) | 158 nM | 64 µg/mL (≈ 61.3 µM) | 16 µg/mL (≈ 15.3 µM) | 8 µg/mL (≈ 7.67 µM) | inhibit the secretion of beta-lactamase |

Source: patent publication US6951840B2, “Lipoglycopeptide antibiotics” (priority 2001, dated 2005)
